Patent publication US20040224981A1, “Antibacterial methods and compositions” (priority 2003, published 2004)
Like-named read-outs stand apart in the source and are kept apart here.

Assays:
[1] = system: E. faecalis; assay: MIC against E. faecalis; assay type: cell-based; conditions: for MIC: Table 8
Description: The MRS inhibitor 4 alone and in combination with mupirocin (mupirocin salt and 1:1 combination) were tested against a collection of Gram-positive pathogens.
(§1) MRSi compound 5 alone and in combination with mupirocin was tested recent clinical isolates of E. faecalis (n=28) and E. faecium (n=23). Both the acetate salt and mupirocinate salts of MRSi compound 5 maintained potent activity against vancomycin-susceptible and—resistant enterococci (Tables 8, 9, and 10).

[2] = system: E. faecium; assay: MIC against E. faecium; assay type: cell-based; conditions: Table 8, E. faecium ATCC 33667
Description: as §1

[3] = system: S. aureus; assay: MIC against S. aureus strains and clinical isolates (broth microdilution); assay type: cell-based, Staphylococcus aureus
Description: were tested against a collection of clinical isolates of S. aureus including strains that were multi-resistant to mupirocin and to other agents such as gentamicin and oxacillin.
The acetate and mupirocin salts of the MRS inhibitor compound 5 were tested against a collection of both low and high-level mupirocin resistant clinical isolates of S. aureus (Table 6).
The bacterial strains were tested for susceptibility to mupirocin and MRSi compound 2 using the broth microdilution method in accordance with NCCLS guideline to determine their MICs.
Briefly, the MIC and checkerboard titration assays were performed with strains in microtiter trays with cation-supplemented Mueller-Hinton broth (Difco). Inocula were prepared by suspending growth from blood agar plates in sterile saline to a density equivalent to that of a 0.5 McFarland standard and were diluted […] to produce a final inoculum of 5×10^5 CFU/ml. The trays were incubated aerobically overnight. Standard quality control strains were included with each run. Fractional inhibitory concentrations (FICs) were calculated as the MIC of drug A or B in combination/MIC of drug A or B alone, and the FIC index was obtained by adding the two FICs. FIC indices were interpreted as synergistic if the values were ≦0.5, additive or indifferent if the values were >0.5 to 4, and antagonistic if the values were >4.0.

[4] = recent clinical isolates of E. faecalis, ALL (28)
[5] = S. aureus 10-420 (LL Mup. Rest.)
[6] = S. aureus 14-354 (LL Mup. Rest.)
[7] = S. aureus 25-670 (HL Mup. Rest.)
[8] = S. aureus 31-1334 (LL Mup Rest.)
[9] = S. aureus 36-1298 (LL Mup. Rest.)
[10] = S. aureus 87-2797 (HL Mup. Rest.)
[11] = S. aureus NRS107 (HL Mup rest.)
[12] = all S. aureus strains of Table 1
[13] = all S. aureus isolates of Table 6

C=C(F)c1sc(CNCCCNc2cc(=O)c3ccccc3[nH]2)c(C)c1Br [MRSi Cmpd 5 mupirocinate, N-(4-bromo-5-(1-fluorovinyl)-3-methylthiophen-2-ylmethyl)-N′(1H-quinolin-4-one)propane-1,3-diamine Mupirocinate]
0.03 µg/mL: MIC90 ([1]; E. faecalis, Van-R(11)) | MIC90 ([1]; E. faecalis, Van-S (16)) | MIC90 [1, 4] | Mode (MIC) [1, 4]

CC1(C)S[C@@H]2[C@H](NC(=O)[C@H](N)c3ccccc3)C(=O)N2[C@H]1C(=O)O [Ampicillin, reference compound]
1 µg/mL: MIC ([2]; Enterococcus faecium, ATCC33667, read-out: MIC)
0.5 µg/mL: MIC ([1]; Enterococcus faecalis, ATCC 51299 / VRE, E. faecalis ATCC 51299 (VRE), read-out: MIC) | MIC ([1]; Enterococcus faecalis, E. faecalis 1, read-out: MIC) | MIC ([1]; Enterococcus faecalis, E. faecalis 7, read-out: MIC)

O=c1cc(NCCCNC2CCNc3c(Br)cc(Br)cc32)[nH]c2ccccc12 (centres unmarked) [MRSi cmpd 1, 2-[3-(6,8-Dibromo-2,3,4,5-tetrahydroquinolin-4-ylamino)prop-1-ylamino]-1H-quinolin-4-one]
0.06 µg/mL: MIC ([3]; S. aureus 101-100 (Mup. Susc.)) | MIC ([3]; S. aureus LZ1 (HL Mup rest.)) | MIC ([3]; S. aureus LZ8 (LL Mup. Rest.)) | MIC ([3]; S. aureus LZ9)
0.015 µg/mL: MIC [3, 9] | MIC ([1]; E. faecalis 7) | MIC ([1]; E. faecalis ATCC 51299 (VRE))
0.015 to 0.12 µg/mL: MIC Range ([3]; all S. aureus strains of Table 1 (mupirocin-susceptible and -resistant))
≦0.004 μg/mL: MIC ([1]; E. faecalis 1) | MIC [2]
0.12 µg/mL: MIC [3, 5] | MIC [3, 7] | MIC [3, 8] | MIC [3, 10] | MIC ([3]; S. aureus 87-2797 (Mup. Susc.)) | MIC ([3]; S. aureus LZ6 (HL Mup rest.)) | MIC ([3]; S. aureus LZ10) | MIC ([3]; S. aureus Miles Hall) | MIC ([3]; S. aureus NRS1 (VISA)) | MIC ([3]; S. aureus Oxford)
0.03 µg/mL: MIC [3, 11]
0.25 µg/mL: MIC [3, 6] | MIC ([3]; S. aureus ATCC 43300 (ORSA)) | MIC90 [3, 12]

Cc1onc(-c2ccccc2)c1C(=O)N[C@@H]1C(=O)N2[C@@H]1SC(C)(C)[C@@H]2C(=O)O [Oxacillin]
2 µg/mL: MIC ([3]; Staphylococcus aureus, NRS 18 / VISA, VISA, S. aureus NRS18 (HIP06854), read-out: MIC)
64 µg/mL: MIC ([3]; Staphylococcus aureus, NRS 4 / VISA, VISA, S. aureus NRS4 (HIP5836), read-out: MIC) | MIC ([3]; Staphylococcus aureus, NRS127, Table 6, low-level mupirocin-resistant S. aureus NRS127, read-out: MIC) | MIC ([3]; Staphylococcus aureus, Table 6, low-level mupirocin-resistant S. aureus 031-1334, read-out: MIC)
16 µg/mL: MIC ([3]; Staphylococcus aureus, S. aureus 10-420 (LL Mup. Rest.), read-out: MIC) | MIC ([3]; Staphylococcus aureus, S. aureus 101-100 (Mup. Susc.), read-out: MIC)
4 µg/mL: MIC ([3]; Staphylococcus aureus, ATCC43300, S. aureus ATCC 43300 (ORSA), read-out: MIC)
0.12 µg/mL: MIC ([3]; Staphylococcus aureus, NRS107, S. aureus NRS107 (HL Mup rest.), read-out: MIC) | MIC ([3]; Staphylococcus aureus, NRS107, Table 6, high-level mupirocin-resistant S. aureus NRS107, read-out: MIC) | MIC ([3]; Staphylococcus aureus, Table 6, low-level mupirocin-resistant S. aureus Miles Hall, read-out: MIC)
8 µg/mL: MIC ([3]; Staphylococcus aureus, Table 6, S. aureus (mupirocin-susceptible) 010-100, read-out: MIC) | MIC ([3]; Staphylococcus aureus, Table 6, high-level mupirocin-resistant S. aureus 010-420, read-out: MIC) | MIC ([3]; Staphylococcus aureus, Table 6, low-level mupirocin-resistant S. aureus 036-1298, read-out: MIC) | MIC ([3]; Staphylococcus aureus, Table 6, low-level mupirocin-resistant S. aureus 1081148, read-out: MIC)
> 64 µg/mL: MIC ([3]; Staphylococcus aureus, NRS 1 / VISA, S. aureus NRS1 (VISA), read-out: MIC) | MIC ([3]; Staphylococcus aureus, NRS 1 / VISA, VISA, S. aureus NRS1 (Mu50), read-out: MIC) | MIC ([3]; Staphylococcus aureus, NRS 3 / VISA, VISA, S. aureus NRS3 (HIP5827), read-out: MIC) | MIC ([3]; Staphylococcus aureus, NRS 49 / VISA, VISA, S. aureus NRS49 (Korea), read-out: MIC) | MIC ([3]; Staphylococcus aureus, NRS54, Table 6, high-level mupirocin-resistant S. aureus NRS54, read-out: MIC) | MIC ([3]; Staphylococcus aureus, NRS 54 / VISA, VISA, S. aureus NRS54 (Brazil), read-out: MIC) | MIC ([3]; Staphylococcus aureus, NRS 56 / VISA, VISA, S. aureus NRS56 (Brazil), read-out: MIC) | MIC ([3]; Staphylococcus aureus, S. aureus 14-354 (LL Mup. Rest.), read-out: MIC) | MIC ([3]; Staphylococcus aureus, S. aureus 25-670 (HL Mup. Rest.), read-out: MIC) | MIC ([3]; Staphylococcus aureus, S. aureus 31-1334 (LL Mup Rest.), read-out: MIC) | MIC ([3]; Staphylococcus aureus, S. aureus 87-2797 (HL Mup. Rest.), read-out: MIC) | MIC ([3]; Staphylococcus aureus, S. aureus 87-2797 (Mup. Susc.), read-out: MIC) | MIC ([3]; Staphylococcus aureus, S. aureus LZ1 (HL Mup rest.), read-out: MIC) | MIC ([3]; Staphylococcus aureus, S. aureus LZ6 (HL Mup rest.), read-out: MIC) | MIC ([3]; Staphylococcus aureus, S. aureus LZ8 (LL Mup. Rest.), read-out: MIC) | MIC ([3]; Staphylococcus aureus, S. aureus LZ9, read-out: MIC) | MIC ([3]; Staphylococcus aureus, S. aureus LZ10, read-out: MIC) | MIC ([3]; Staphylococcus aureus, Table 6, S. aureus (mupirocin-susceptible) 087-2789, read-out: MIC) | MIC ([3]; Staphylococcus aureus, Table 6, S. aureus (mupirocin-susceptible) LZ9, read-out: MIC) | MIC ([3]; Staphylococcus aureus, Table 6, S. aureus (mupirocin-susceptible) LZ10, read-out: MIC) | MIC ([3]; Staphylococcus aureus, Table 6, high-level mupirocin-resistant S. aureus 25-670, read-out: MIC) | MIC ([3]; Staphylococcus aureus, Table 6, high-level mupirocin-resistant S. aureus 87-2797, read-out: MIC) | MIC ([3]; Staphylococcus aureus, Table 6, high-level mupirocin-resistant S. aureus LZ1, read-out: MIC) | MIC ([3]; Staphylococcus aureus, Table 6, high-level mupirocin-resistant S. aureus LZ6, read-out: MIC) | MIC ([3]; Staphylococcus aureus, Table 6, low-level mupirocin-resistant S. aureus 014-354, read-out: MIC) | MIC ([3]; Staphylococcus aureus, Table 6, low-level mupirocin-resistant S. aureus LZ8, read-out: MIC) | MIC50 ([3]; Staphylococcus aureus, all S. aureus isolates of Table 6, read-out: MIC50) | MIC90 ([3]; Staphylococcus aureus, all S. aureus isolates of Table 6, read-out: MIC90) | MIC90 ([3]; Staphylococcus aureus, all S. aureus strains of Table 1, read-out: MIC 90)
0.015 µg/mL: MIC ([3]; Staphylococcus aureus, S. aureus Oxford, read-out: MIC)
0.25 µg/mL: MIC ([3]; Staphylococcus aureus, S. aureus 36-1298 (LL Mup. Rest.), read-out: MIC) | MIC ([3]; Staphylococcus aureus, S. aureus Miles Hall, read-out: MIC) | MIC ([3]; Staphylococcus aureus, Table 6, high-level mupirocin-resistant S. aureus 1079101, read-out: MIC)
32 µg/mL: MIC ([3]; Staphylococcus aureus, NRS 24 / VISA, VISA, S. aureus NRS24 (HIP09143), read-out: MIC)

N-(4-bromo-5-(1-fluorovinyl)-3-methylthiophen-2-ylmethyl)-N′(1H-quinolin-4-one)propane-1,3-diamine Mupirocinate [MRSi Cmpd 5 mupirocinate]
1 µg/mL: MIC90 [3, 13]
0.12 µg/mL: MIC50 [3, 13]

Gentamicin
0.25 µg/mL: MIC [3, 10] | MIC ([3]; S. aureus 87-2797 (Mup. Susc.)) | MIC ([3]; S. aureus LZ6 (HL Mup rest.)) | MIC [3, 11]
4 µg/mL: MIC ([3]; S. aureus ATCC 43300 (ORSA))
0.5 µg/mL: MIC [3, 9] | MIC ([3]; S. aureus LZ1 (HL Mup rest.)) | MIC ([3]; S. aureus Miles Hall) | MIC ([3]; S. aureus Oxford)
64 µg/mL: MIC [3, 5] | MIC [3, 8] | MIC ([3]; S. aureus LZ8 (LL Mup. Rest.)) | MIC ([3]; S. aureus LZ9) | MIC ([3]; S. aureus LZ10)
>64 µg/mL: MIC [3, 6] | MIC [3, 7] | MIC ([3]; S. aureus NRS1 (VISA)) | MIC90 [3, 12]
0.12 µg/mL: MIC ([3]; S. aureus 101-100 (Mup. Susc.))
